# In patent US20240116988A1, “ANTI-ROR1 MACROCYCLIC PEPTIDES AND COMPOSITIONS” (BRISTOL-MYERS SQUIBB COMPANY, priority 2022, published 2024):
# Positions of bridges follow the written chain, without caps; N, C: chain ends. Non-standard residues stand in square brackets, D forms with d. Residues, ends and D or L forms follow the SMILES beside them. ξ: configuration not given here. NMeF = CN[C@@H](Cc1ccccc1)C(=O)O; Ile(3ξ) = CCC(C)[C@H](N)C(=O)O; ξY = NC(Cc1ccc(O)cc1)C(=O)O; AEEA = NCCOCCOCC(=O)O; ξC = NC(CS)C(=O)O; Sar = CNCC(=O)O
# Biological target: T1, human ROR1 (Homo sapiens, UniProt Q01973)
# T1 construct: host or cells: HEK 293T cells, Tet-on system induced with doxycycline
# T1 sequence (Q01973 30-937): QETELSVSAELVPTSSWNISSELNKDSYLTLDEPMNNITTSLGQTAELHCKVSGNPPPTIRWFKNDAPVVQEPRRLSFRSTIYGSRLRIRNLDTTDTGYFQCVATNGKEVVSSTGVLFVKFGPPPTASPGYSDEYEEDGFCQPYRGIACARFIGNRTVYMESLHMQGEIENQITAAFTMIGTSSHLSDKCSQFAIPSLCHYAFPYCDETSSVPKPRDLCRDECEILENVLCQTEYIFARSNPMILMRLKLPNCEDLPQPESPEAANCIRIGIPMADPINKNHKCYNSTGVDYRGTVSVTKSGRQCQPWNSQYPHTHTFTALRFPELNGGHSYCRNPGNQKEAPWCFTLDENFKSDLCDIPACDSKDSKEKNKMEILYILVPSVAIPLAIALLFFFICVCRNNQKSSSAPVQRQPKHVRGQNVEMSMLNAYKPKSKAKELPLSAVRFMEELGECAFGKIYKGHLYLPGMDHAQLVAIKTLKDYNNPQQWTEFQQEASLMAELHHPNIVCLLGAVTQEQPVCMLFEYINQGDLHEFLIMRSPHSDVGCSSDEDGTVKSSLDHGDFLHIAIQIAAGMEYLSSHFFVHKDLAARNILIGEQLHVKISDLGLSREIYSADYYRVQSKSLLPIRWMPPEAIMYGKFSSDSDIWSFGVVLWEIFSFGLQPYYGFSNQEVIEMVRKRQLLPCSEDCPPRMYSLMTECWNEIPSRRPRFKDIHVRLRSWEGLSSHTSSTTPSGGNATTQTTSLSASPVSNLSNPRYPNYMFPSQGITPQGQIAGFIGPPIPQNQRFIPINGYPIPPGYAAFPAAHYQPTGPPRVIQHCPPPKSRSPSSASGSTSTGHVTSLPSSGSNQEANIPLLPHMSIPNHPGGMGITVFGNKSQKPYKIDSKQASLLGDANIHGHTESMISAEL
# Experiment: ROR1 high content cell-based binding assay
# Conditions: read-out: ROR1 Binding 293T Human HC Cell Based Assay IC50
# Summary of the method: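 Doxycycline-induced 293T cells expressing human ROR1, seeded overnight, were treated with compound plus 5-FAM-labeled ROR1-binding probe peptide (30 nM final) for 1 h at 37 °C. After washing and formaldehyde/Hoechst fixation, cell-bound probe fluorescence was read by high-content imaging.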
row,Structure (SMILES),IC50 [nM]
1,CC(C)C[C@@H]1NC(=O)[C@H](Cc2ccccc2)NC(=O)CSC[C@@H](C(=O)NCCOCCOCC(=O)O)NC(=O)[C@H](C)NC(=O)[C@H](Cc2ccc(O)cc2)NC(=O)[C@H](Cc2ccc(O)cc2)NC(=O)[C@H](Cc2c[nH]c3ccccc23)NC(=O)CNC(=O)[C@H](Cc2ccc(O)cc2)NC(=O)[C@H](CCCNC(=N)N)NC(=O)[C@H](C(C)C)NC(=O)[C@H](Cc2c[nH]c3ccccc23)NC1=O [Example 1086] ({CH2CO}-FLWVRYGWYYAC[AEEA]-OH; thioether N-12),364
2,CC(C)C[C@@H]1NC(=O)[C@H](Cc2ccc(O)cc2)NC(=O)[C@H](Cc2ccccc2)N(C)C(=O)CNC(=O)[C@H](Cc2ccc(O)cc2)NC(=O)[C@H](Cc2ccccc2)NC(=O)CSC[C@@H](C(N)=O)NC(=O)[C@H](Cc2c[nH]c3ccccc23)NC(=O)[C@H](Cc2ccc(O)cc2)NC1=O [Example 1115] ({CH2CO}-FYG[NMeF]YLYWC-NH2; thioether N-9),94
3,CC(C)C[C@@H]1NC(=O)[C@H](Cc2ccccc2)NC(=O)CSC[C@@H](C(N)=O)NC(=O)[C@H](C(C)C)NC(=O)[C@H](Cc2ccccc2)N(C)C(=O)[C@H](CC(C)C)NC(=O)[C@H](Cc2c[nH]c3ccccc23)NC(=O)CN(C)C(=O)CNC(=O)[C@H](C(C)C)NC(=O)[C@H](Cc2c[nH]c3ccccc23)NC1=O [Example 1203] ({CH2CO}-FLWVG[Sar]WL[NMeF]VC-NH2; thioether N-11),86
4,CC(C)[C@@H]1NC(=O)[C@H](Cc2c[nH]c3ccccc23)NC(=O)[C@H](Cc2ccc(O)cc2)NC(=O)[C@H](Cc2c[nH]c3ccccc23)NC(=O)CNC(=O)[C@H](Cc2c[nH]c3ccccc23)NC(=O)[C@H](CCCNC(=N)N)NC(=O)[C@H](C(C)C)NC(=O)[C@H](Cc2ccccc2)N(C)C(=O)[C@H](CCCNC(=N)N)NC(=O)[C@H](Cc2ccccc2)NC(=O)CSC[C@@H](C(=O)NCCOCCOCC(=O)O)NC1=O [Example 1091] ({CH2CO}-FR[NMeF]VRWGWYWVC[AEEA]-OH; thioether N-12),565
5,CC(C)C[C@@H]1NC(=O)[C@H](Cc2ccc(O)cc2)NC(=O)[C@H](Cc2ccccc2)NC(=O)CSC[C@@H](C(=O)NCC(N)=O)NC(=O)[C@H](CC(C)C)NC(=O)[C@H](Cc2ccccc2)N(C)C(=O)[C@H](Cc2ccc(O)cc2)NC(=O)[C@H](Cc2c[nH]c3ccccc23)NC(=O)CNC(=O)[C@H](Cc2ccccc2)NC(=O)[C@H](Cc2ccc(O)cc2)NC(=O)[C@H](C(C)C)NC1=O [Example 1043] ({CH2CO}-FYLVYFGWY[NMeF]LCG-NH2; thioether N-12),38
6,CC(C)C[C@@H]1NC(=O)[C@H](CC(N)=O)NC(=O)[C@H](Cc2ccccc2)N(C)C(=O)CNC(=O)[C@H](Cc2ccc(O)cc2)NC(=O)[C@H](Cc2ccc(O)cc2)NC(=O)CSC[C@@H](C(N)=O)NC(=O)[C@H](Cc2c[nH]c3ccccc23)NC(=O)[C@H](Cc2ccc(O)cc2)NC1=O [Example 1120] ({CH2CO}-YYG[NMeF]NLYWC-NH2; thioether N-9),790
7,CC(C)C[C@@H]1NC(=O)[C@H](CC(N)=O)NC(=O)[C@H](Cc2ccccc2)N(C)C(=O)CNC(=O)[C@H](Cc2ccc(O)cc2)NC(=O)[C@H](Cc2ccccc2)NC(=O)CSCC(C(N)=O)NC(=O)[C@H](Cc2c[nH]c3ccccc23)NC(=O)[C@H](Cc2ccccc2)NC1=O (some centres unmarked) [Example 1104] ({CH2CO}-FYG[NMeF]NLFW[ξC]-NH2; thioether N-9),31
8,CC(C)C[C@@H]1NC(=O)[C@H](Cc2c[nH]c3ccccc23)NC(=O)[C@H](Cc2ccc(O)cc2)NC(=O)[C@H](Cc2c[nH]c3ccccc23)NC(=O)CNC(=O)[C@H](CO)NC(=O)[C@H](Cc2ccc(O)cc2)NC(=O)[C@H](C(C)C)NC(=O)[C@@H]2CCCN2C(=O)[C@H](Cc2ccc(O)cc2)NC(=O)[C@H](Cc2ccccc2)NC(=O)CSC[C@@H](C(N)=O)NC1=O [Example 1095] ({CH2CO}-FYPVYSGWYWLC-NH2; thioether N-12),11
9,CCC(C)[C@@H]1NC(=O)[C@H](Cc2c[nH]c3ccccc23)NC(=O)[C@H](Cc2ccccc2)NC(=O)[C@H](Cc2ccc(O)cc2)NC(=O)[C@@H](Cc2ccccc2)NC(=O)CSC[C@@H](C(N)=O)NC(=O)[C@H](C)NC(=O)[C@H](C(C)CC)NC(=O)[C@H](C(C)C)NC(=O)[C@H](Cc2c[nH]c3ccccc23)NC(=O)[C@H](CCCNC(=N)N)NC(=O)CNC1=O (some centres unmarked) [Example 1050] ({CH2CO}-[dF]YFW[Ile(3ξ)]GRWV[Ile(3ξ)]AC-NH2; thioether N-12),15
10,CC(C)C[C@@H]1NC(=O)[C@H](CO)NC(=O)[C@H](Cc2ccccc2)N(C)C(=O)CNC(=O)[C@H](Cc2ccc(O)cc2)NC(=O)[C@H](Cc2ccccc2)NC(=O)CSC[C@@H](C(N)=O)NC(=O)[C@H](Cc2c[nH]c3ccccc23)NC(=O)[C@H](Cc2ccc(O)cc2)NC1=O [Example 1111] ({CH2CO}-FYG[NMeF]SLYWC-NH2; thioether N-9),479

# Continued, values first:
row,IC50 [nM],Structure (SMILES)
1,192,CC(C)C[C@@H]1NC(=O)[C@H](Cc2ccc(O)cc2)NC(=O)[C@H](Cc2ccccc2)N(C)C(=O)CSC[C@@H](C(=O)NCC(N)=O)NC(=O)[C@H](CC(C)C)NC(=O)[C@H](Cc2ccccc2)N(C)C(=O)[C@H](Cc2ccc(O)cc2)NC(=O)[C@H](Cc2c[nH]c3ccccc23)NC(=O)CNC(=O)[C@H](CO)NC(=O)[C@H](Cc2ccc(O)cc2)NC(=O)[C@H](C(C)C)NC1=O [Example 1082] ({CH2CO}-[NMeF]YLVYSGWY[NMeF]LCG-NH2; thioether N-12)
2,515,CC(C)C[C@@H]1NC(=O)[C@H](Cc2ccc(O)cc2)NC(=O)[C@@H]2CCCN2C(=O)CSC[C@@H](C(=O)NCC(N)=O)NC(=O)[C@H](CC(C)C)NC(=O)[C@H](Cc2ccccc2)N(C)C(=O)[C@H](Cc2ccc(O)cc2)NC(=O)[C@H](Cc2c[nH]c3ccccc23)NC(=O)CNC(=O)[C@H](CO)NC(=O)[C@H](Cc2ccc(O)cc2)NC(=O)[C@H](C(C)C)NC1=O [Example 1067] ({CH2CO}-PYLVYSGWY[NMeF]LCG-NH2; thioether N-12)
3,392,CC(C)C[C@@H]1NC(=O)[C@H](Cc2ccc(O)cc2)NC(=O)[C@H](Cc2ccccc2)NC(=O)CSC[C@@H](C(=O)NCC(N)=O)NC(=O)[C@H](CC(C)C)NC(=O)[C@H](Cc2ccccc2)N(C)C(=O)[C@H](Cc2ccc(O)cc2)NC(=O)[C@H](Cc2c[nH]c3ccccc23)NC(=O)CNC(=O)CNC(=O)[C@H](CCCNC(=N)N)NC(=O)[C@H](C(C)C)NC1=O [Example 1032] ({CH2CO}-FYLVRGGWY[NMeF]LCG-NH2; thioether N-12)
4,93,CC(C)C[C@@H]1NC(=O)[C@H](Cc2ccc(O)cc2)NC(=O)[C@H](Cc2ccccc2)NC(=O)CSC[C@@H](C(=O)NCC(N)=O)NC(=O)[C@H](CC(C)C)NC(=O)[C@H](Cc2ccccc2)N(C)C(=O)C(Cc2ccc(O)cc2)NC(=O)[C@H](Cc2c[nH]c3ccccc23)NC(=O)[C@@H](C)NC(=O)[C@H](CO)NC(=O)[C@H](Cc2ccc(O)cc2)NC(=O)[C@H](C(C)C)NC1=O (some centres unmarked) [Example 1059] ({CH2CO}-FYLVYS[dA]W[ξY][NMeF]LCG-NH2; thioether N-12)
5,214,CC(C)C[C@@H]1NC(=O)[C@H](Cc2ccc(O)cc2)NC(=O)[C@H](Cc2ccccc2)NC(=O)CSC[C@@H](C(=O)NCC(N)=O)NC(=O)[C@H](CC(C)C)NC(=O)[C@H](Cc2ccccc2)N(C)C(=O)[C@H](Cc2ccc(O)cc2)NC(=O)[C@H](Cc2c[nH]c3ccccc23)NC(=O)CNC(=O)[C@H](CO)NC(=O)[C@H](CCC(N)=O)NC(=O)[C@H](C(C)C)NC1=O [Example 1031] ({CH2CO}-FYLVQSGWY[NMeF]LCG-NH2; thioether N-12)
6,172,CC(C)C[C@@H]1NC(=O)[C@H](CCCNC(=N)N)NC(=O)[C@H](Cc2ccccc2)NC(=O)CSC[C@@H](C(=O)NCC(N)=O)NC(=O)[C@H](CC(C)C)NC(=O)[C@H](Cc2ccccc2)N(C)C(=O)[C@H](Cc2ccc(O)cc2)NC(=O)[C@H](Cc2c[nH]c3ccccc23)NC(=O)CNC(=O)[C@H](CO)NC(=O)[C@H](Cc2ccc(O)cc2)NC(=O)[C@H](C(C)C)NC1=O [Example 1051] ({CH2CO}-FRLVYSGWY[NMeF]LCG-NH2; thioether N-12)
7,251,CC(C)C[C@@H]1NC(=O)[C@H](Cc2ccc(O)cc2)NC(=O)[C@H](C)NC(=O)CSC[C@@H](C(=O)NCC(N)=O)NC(=O)[C@H](CC(C)C)NC(=O)[C@H](Cc2ccccc2)N(C)C(=O)[C@H](Cc2ccc(O)cc2)NC(=O)[C@H](Cc2c[nH]c3ccccc23)NC(=O)CNC(=O)[C@H](CO)NC(=O)[C@H](Cc2ccc(O)cc2)NC(=O)[C@H](C(C)C)NC1=O [Example 1037] ({CH2CO}-AYLVYSGWY[NMeF]LCG-NH2; thioether N-12)
8,35,CC(C)C[C@@H]1NC(=O)[C@H](Cc2ccc(O)cc2)NC(=O)[C@H](Cc2ccccc2)NC(=O)CSC[C@@H](C(=O)NCC(N)=O)NC(=O)[C@H](CC(C)C)NC(=O)[C@H](Cc2ccccc2)N(C)C(=O)[C@H](Cc2ccc(O)cc2)NC(=O)[C@H](Cc2c[nH]c3ccccc23)NC(=O)CNC(=O)[C@H](Cc2c[nH]c3ccccc23)NC(=O)[C@H](CCCNC(=N)N)NC(=O)[C@H](C(C)C)NC1=O [Example 1054] ({CH2CO}-FYLVRWGWY[NMeF]LCG-NH2; thioether N-12)
9,246,CC(C)C[C@@H]1NC(=O)[C@H](Cc2ccc(O)cc2)NC(=O)[C@H](Cc2ccccc2)NC(=O)CSC[C@@H](C(=O)NCC(N)=O)NC(=O)[C@H](CC(C)C)NC(=O)[C@H](Cc2ccccc2)N(C)C(=O)[C@H](Cc2ccc(O)cc2)NC(=O)[C@H](Cc2c[nH]c3ccccc23)NC(=O)CNC(=O)[C@H](CO)NC(=O)[C@H](C(C)C)NC(=O)[C@H](C(C)C)NC1=O [Example 1034] ({CH2CO}-FYLVVSGWY[NMeF]LCG-NH2; thioether N-12)
10,30,CC(C)C[C@@H]1NC(=O)[C@H](Cc2ccc(O)cc2)NC(=O)[C@H](Cc2ccccc2)NC(=O)CSC[C@@H](C(=O)NCC(N)=O)NC(=O)[C@H](CC(C)C)NC(=O)[C@H](Cc2ccccc2)N(C)C(=O)[C@H](Cc2ccc(O)cc2)NC(=O)[C@H](Cc2c[nH]c3ccccc23)NC(=O)CNC(=O)[C@H](CO)NC(=O)[C@@H](C)NC(=O)[C@H](C(C)C)NC1=O [Example 1060] ({CH2CO}-FYLV[dA]SGWY[NMeF]LCG-NH2; thioether N-12)
